{
  "source": "patent US20240067639A1",
  "about": "“SMALL MOLECULES THAT TARGET THE RNA THAT CAUSES ALS” (EXPANSION THERAPEUTICS, INC., priority 2020, published 2024)",
  "key": {"[1]": {"system": "RAN translation of (G4C2)66-No ATG-GFP in HEK293T cells", "test": "Cell-based assay of RAN translation inhibition (GFP/mCherry reporter)", "conditions": "Homo sapiens, HEK-293T, read-out: RANT IC50"}, "[2]": {"target": "Biotin-labeled RNA (target RNA)", "test": "BLI affinity measurement (ForteBio Octet RED384)", "assay_type": "binding", "conditions": "Table G"}},
  "note": "Read-outs that look alike come from different tables or passages of the source.",
  "data": [
    {"smiles": "Cc1c2ccncc2cc2c3cc(OC[C@H](C)Nc4ccccn4)ccc3n(C)c12", "note": "[Compound 269, (S)—N-(1-((5,6-dimethyl-6H-pyrido[4,3-b]carbazol-9-yl)oxy)propan-2-yl)pyridin-2-amine]", "values": [
      {"measurement": "IC50", "setting": "[1]; Table G, HEK293T", "result": "> 100000", "unit": "nM"},
      {"measurement": "Kd", "setting": "[2]", "result": 1400, "unit": "nM"}
    ]},
    {"smiles": "Cc1c2ccnc(C(=O)N[C@H](C)CN(C)C)c2cc2c3cc(OCC(N)=O)ccc3n(C)c12", "note": "[Compound 270, 9-(2-amino-2-oxo-ethoxy)-N-[(1R)-2-(dimethylamino)-1-methyl-ethyl]-5,6-dimethyl-pyrido[4,3-b]carbazole-1-carboxamide]", "values": [
      {"measurement": "IC50", "setting": "[1]; Table G, HEK293T", "result": 360, "unit": "nM"},
      {"measurement": "Kd", "setting": "[2]", "result": 510, "unit": "nM"}
    ]},
    {"smiles": "Cc1c2ccnc(C(=O)N[C@H](C)CN(C)C)c2cc2c3cc(OC[C@H](C)N)ccc3n(C)c12", "note": "[Compound 271, 9-[(2S)-2-aminopropoxy]-N-[(1R)-2-(dimethylamino)-1-methyl-ethyl]-5,6-dimethyl-pyrido[4,3-b]carbazole-1-carboxamide]", "values": [
      {"measurement": "IC50", "setting": "[1]; Table G, HEK293T", "result": "> 100000", "unit": "nM"},
      {"measurement": "Kd", "setting": "[2]", "result": 130, "unit": "nM"}
    ]},
    {"smiles": "CC(=O)N[C@@H](C)COc1ccc2c(c1)c1cc3cnccc3c(C)c1n2C", "note": "[Compound 272, (S)—N-(1-((5,6-dimethyl-6H-pyrido[4,3-b]carbazol-9-yl)oxy)propan-2-yl)acetamide]", "values": [
      {"measurement": "IC50", "setting": "[1]; Table G, HEK293T", "result": 2000, "unit": "nM"},
      {"measurement": "Kd", "setting": "[2]", "result": 7700, "unit": "nM"}
    ]},
    {"smiles": "Cc1c2ccncc2cc2c3cc(OC[C@H](C)NC(N)=O)ccc3n(C)c12", "note": "[Compound 273, (S)-1-(1-((5,6-dimethyl-6H-pyrido[4,3-b]carbazol-9-yl)oxy)propan-2-yl)urea]", "values": [
      {"measurement": "IC50", "setting": "[1]; Table G, HEK293T", "result": 390, "unit": "nM"},
      {"measurement": "Kd", "setting": "[2]", "result": 140, "unit": "nM"}
    ]},
    {"smiles": "CCN[C@@H](C)COc1ccc2c(c1)c1cc3cnccc3c(C)c1n2C", "note": "[Compound 275, (2S)-1-(5,6-dimethylpyrido[4,3-b]carbazol-9-yl)oxy-N-ethyl-propan-2-amine]", "values": [
      {"measurement": "IC50", "setting": "[1]; Table G, HEK293T", "result": 20000, "unit": "nM"},
      {"measurement": "Kd", "setting": "[2]", "result": 62, "unit": "nM"}
    ]},
    {"smiles": "CN[C@@H](C)COc1ccc2c(c1)c1cc3cnccc3c(C)c1n2C", "note": "[Compound 276, (S)-1-((5,6-dimethyl-6H-pyrido[4,3-b]carbazol-9-yl)oxy)-N-methylpropan-2-amine]", "values": [
      {"measurement": "IC50", "setting": "[1]; Table G, HEK293T", "result": 12000, "unit": "nM"},
      {"measurement": "Kd", "setting": "[2]", "result": 41, "unit": "nM"}
    ]},
    {"smiles": "CCCN[C@@H](C)COc1ccc2c(c1)c1cc3cnccc3c(C)c1n2C", "note": "[Compound 277, (2S)-1-(5,6-dimethylpyrido[4,3-b]carbazol-9-yl)oxy-N-propyl-propan-2-amine]", "values": [
      {"measurement": "IC50", "setting": "[1]", "result": 1500, "unit": "nM"},
      {"measurement": "Kd", "setting": "[2]", "result": 20, "unit": "nM"}
    ]},
    {"smiles": "COCCN[C@@H](C)COc1ccc2c(c1)c1cc3cnccc3c(C)c1n2C", "note": "[Compound 278, (2S)-1-(5,6-dimethylpyrido[4,3-b]carbazol-9-yl)oxy-N-(2-methoxyethyl)propan-2-amine]", "values": [
      {"measurement": "IC50", "setting": "[1]; Table G, HEK293T", "result": 21000, "unit": "nM"},
      {"measurement": "Kd", "setting": "[2]", "result": 83, "unit": "nM"}
    ]},
    {"smiles": "Cc1c2ccncc2cc2c3cc(OC[C@H](C)NCC(F)F)ccc3n(C)c12", "note": "[Compound 279, (2S)—N-(2,2-difluoroethyl)-1-(5,6-dimethylpyrido[4,3-b]carbazol-9-yl)oxy-propan-2-amine]", "values": [
      {"measurement": "IC50", "setting": "[1]; Table G, HEK293T", "result": 2400, "unit": "nM"},
      {"measurement": "Kd", "setting": "[2]", "result": 250, "unit": "nM"}
    ]},
    {"smiles": "Cc1c2ccncc2cc2c3cc(C(=O)NC[C@H](C)N)ccc3n(C)c12", "note": "[Compound 280, (S)—N-(2-aminopropyl)-5,6-dimethyl-6H-pyrido[4,3-b]carbazole-9-carboxamide]", "values": [
      {"measurement": "IC50", "setting": "[1]; Table G, HEK293T", "result": 35000, "unit": "nM"},
      {"measurement": "Kd", "setting": "[2]", "result": 880, "unit": "nM"}
    ]},
    {"smiles": "Cc1c2ccncc2cc2c3cc(C(=O)N[C@@H](C)CN)ccc3n(C)c12", "note": "[Compound 281, (S)—N-(1-aminopropan-2-yl)-5,6-dimethyl-6H-pyrido[4,3-b]carbazole-9-carboxamide]", "values": [
      {"measurement": "IC50", "setting": "[1]; Table G, HEK293T", "result": 17000, "unit": "nM"},
      {"measurement": "Kd", "setting": "[2]", "result": 460, "unit": "nM"}
    ]},
    {"smiles": "Cc1c2ccncc2cc2c3cc(C(=O)N[C@H](C)CN)ccc3n(C)c12", "note": "[Compound 282, N-[(1R)-2-amino-1-methyl-ethyl]-5,6-dimethyl-pyrido[4,3-b] carbazole-9-carboxamide]", "values": [
      {"measurement": "IC50", "setting": "[1]; Table G, HEK293T", "result": 670, "unit": "nM"},
      {"measurement": "Kd", "setting": "[2]", "result": 140, "unit": "nM"}
    ]},
    {"smiles": "Cc1c2ccncc2cc2c3cc(OC[C@H](C)NC(C)C)ccc3n(C)c12", "note": "[Compound 283, (S)-1-((5,6-dimethyl-6H-pyrido[4,3-b]carbazol-9-yl)oxy)-N-isopropylpropan-2-amine]", "values": [
      {"measurement": "IC50", "setting": "[1]; Table G, HEK293T", "result": 2400, "unit": "nM"},
      {"measurement": "Kd", "setting": "[2]", "result": 90, "unit": "nM"}
    ]},
    {"smiles": "Cc1c2ccncc2cc2c3cc(C(=O)NC[C@@H](C)N)ccc3n(C)c12", "note": "[Compound 284, (R)—N-(2-aminopropyl)-5,6-dimethyl-6H-pyrido[4,3-b]carbazole-9-carboxamide]", "values": [
      {"measurement": "IC50", "setting": "[1]; Table G, HEK293T", "result": 1800, "unit": "nM"},
      {"measurement": "Kd", "setting": "[2]", "result": 350, "unit": "nM"}
    ]},
    {"smiles": "Cc1c2ccncc2cc2c3cc(C(=O)NC[C@@H](C)O)ccc3n(C)c12", "note": "[Compound 285, (R)—N-(2-hydroxypropyl)-5,6-dimethyl-6H-pyrido[4,3-b]carbazole-9-carboxamide]", "values": [
      {"measurement": "IC50", "setting": "[1]; Table G, HEK293T", "result": 900, "unit": "nM"},
      {"measurement": "Kd", "setting": "[2]", "result": 120, "unit": "nM"}
    ]},
    {"smiles": "Cc1c2ccncc2cc2c3cc(C(=O)N[C@H](C)CN(C)C)ccc3n(C)c12", "note": "[Compound 286, N-[(1R)-2-(dimethylamino)-1-methyl-ethyl]-5,6-dimethyl-pyrido[4,3-b]carbazole-9-carboxamide]", "values": [
      {"measurement": "IC50", "setting": "[1]; Table G, HEK293T", "result": 10000, "unit": "nM"},
      {"measurement": "Kd", "setting": "[2]", "result": 2600, "unit": "nM"}
    ]},
    {"smiles": "Cc1c2ccncc2cc2c3cc(C(=O)NC[C@H](C)O)ccc3n(C)c12", "note": "[Compound 287, N-[(2S)-2-hydroxypropyl]-5,6-dimethyl-pyrido[4,3-b]carbazole-9-carboxamide]", "values": [
      {"measurement": "IC50", "setting": "[1]; Table G, HEK293T", "result": 1400, "unit": "nM"},
      {"measurement": "Kd", "setting": "[2]", "result": 1500, "unit": "nM"}
    ]},
    {"smiles": "COC[C@H](C)NC(=O)c1ccc2c(c1)c1cc3cnccc3c(C)c1n2C", "note": "[Compound 288, (S)—N-(1-methoxypropan-2-yl)-5,6-dimethyl-6H-pyrido[4,3-b]carbazole-9-carboxamide]", "values": [
      {"measurement": "IC50", "setting": "[1]; Table G, HEK293T", "result": 2000, "unit": "nM"},
      {"measurement": "Kd", "setting": "[2]", "result": 9600, "unit": "nM"}
    ]},
    {"smiles": "Cc1c2ccncc2cc2c3cc(C(=O)N[C@H](C)CO)ccc3n(C)c12", "note": "[Compound 289, (R)—N-(1-hydroxypropan-2-yl)-5,6-dimethyl-6H-pyrido[4,3-b]carbazole-9-carboxamide]", "values": [
      {"measurement": "IC50", "setting": "[1]; Table G, HEK293T", "result": 2400, "unit": "nM"},
      {"measurement": "Kd", "setting": "[2]", "result": 5000, "unit": "nM"}
    ]},
    {"smiles": "Cc1c2ccnc(C(=O)NCC(N)=O)c2cc2c3ccccc3n(C)c12", "note": "[Compound 290, N-(2-amino-2-oxoethyl)-5,6-dimethyl-6H-pyrido[4,3-b]carbazole-1-carboxamide]", "values": [
      {"measurement": "IC50", "setting": "[1]; Table G, HEK293T", "result": 8300, "unit": "nM"},
      {"measurement": "Kd", "setting": "[2]", "result": "> 20000", "unit": "nM"}
    ]},
    {"smiles": "Cc1c2ccncc2cc2c3cc(C(=O)N[C@@H](C)CO)ccc3n(C)c12", "note": "[Compound 291, N-[(1S)-2-hydroxy-1-methyl-ethyl]-5,6-dimethyl-pyrido[4,3-b]carbazole-9-carboxamide]", "values": [
      {"measurement": "IC50", "setting": "[1]; Table G, HEK293T", "result": 1800, "unit": "nM"},
      {"measurement": "Kd", "setting": "[2]", "result": 3800, "unit": "nM"}
    ]},
    {"smiles": "Cc1c2ccnc(C(=O)N[C@H](C)CN(C)C)c2cc2c3ccccc3n(C)c12", "note": "[Compound 292, (R)—N-(1-(dimethylamino)propan-2-yl)-5,6-dimethyl-6H-pyrido[4,3-b]carbazole-1-carboxamide]", "values": [
      {"measurement": "IC50", "setting": "[1]", "result": 13000, "unit": "nM"},
      {"measurement": "Kd", "setting": "[2]", "result": 5500, "unit": "nM"}
    ]},
    {"smiles": "Cc1c2ccncc2cc2c3cc(C(=O)NC[C@@H](C)N(C)C)ccc3n(C)c12", "note": "[Compound 294, N-[(2R)-2-(dimethylamino)propyl]-5,6-dimethyl-pyrido[4,3-b]carbazole-9-carboxamide]", "values": [
      {"measurement": "IC50", "setting": "[1]; Table G, HEK293T", "result": 13000, "unit": "nM"},
      {"measurement": "Kd", "setting": "[2]", "result": 300, "unit": "nM"}
    ]},
    {"smiles": "Cc1c2ccncc2cc2c3cc(C(=O)N[C@@H](C)CN(C)C)ccc3n(C)c12", "note": "[Compound 295, N-[(1S)-2-(dimethylamino)-1-methyl-ethyl]-5,6-dimethyl-pyrido[4,3-b]carbazole-9-carboxamide]", "values": [
      {"measurement": "IC50", "setting": "[1]; Table G, HEK293T", "result": 41000, "unit": "nM"},
      {"measurement": "Kd", "setting": "[2]", "result": 350, "unit": "nM"}
    ]},
    {"smiles": "Cc1c2ccncc2cc2c3cc(C(=O)NCC(N)=O)ccc3n(C)c12", "note": "[Compound 296, N-(2-amino-2-oxoethyl)-5,6-dimethyl-6H-pyrido[4,3-b]carbazole-9-carboxamide]", "values": [
      {"measurement": "IC50", "setting": "[1]; Table G, HEK293T", "result": 3000, "unit": "nM"},
      {"measurement": "Kd", "setting": "[2]", "result": 5300, "unit": "nM"}
    ]},
    {"smiles": "Cc1c2ccncc2cc2c3cc(C(=O)N[C@@H](C)C(N)=O)ccc3n(C)c12", "note": "[Compound 297, (S)—N-(1-amino-1-oxopropan-2-yl)-5,6-dimethyl-6H-pyrido[4,3-b]carbazole-9-carboxamide]", "values": [
      {"measurement": "IC50", "setting": "[1]; Table G, HEK293T", "result": 2900, "unit": "nM"},
      {"measurement": "Kd", "setting": "[2]", "result": 2700, "unit": "nM"}
    ]}
  ]
}
